Assay results taken from patent publication US6875760B2 (Novo Nordisk A/S, priority 1999, dated 2005).

Target: T1, human glucagon receptor (Homo sapiens, UniProt P47871)
T1 construct: expressed in transfected cells; host or cells: BHK (baby hamster kidney) cells
Assay: Glucagon Binding Assay (III)
Settings: BHK cell membranes, WGA SPA beads, 125I-glucagon; read-out: Glu Bd Assay (III) IC50
Procedure: BHK (baby hamster kidney cell line) cells were transfected with the human glucagon receptor and a membrane preparation of the cells was prepared.
All steps in the membrane preparation were kept on ice or performed at 4° C. BHK cells were harvested and centrifuged. […] The pellet was resuspended in homogenisation buffer, homogenised 2×10 sec (Polytron) and additional homogenisation buffer was added. […] (Polytron).
The glucagon binding assay was carried out in opti plates (Polystyrene Microplates, Packard). […] Finally 50 μL WGA beads containing 1 mg beads were transferred to the well. The assay was incubated for 4 hours on a shaker and then settled for 8-48 hours. The opti plates were counted in a Topcounter. Non-specific binding was determined with 500 nM of glucagon.

T1 sequence (P47871 26-477): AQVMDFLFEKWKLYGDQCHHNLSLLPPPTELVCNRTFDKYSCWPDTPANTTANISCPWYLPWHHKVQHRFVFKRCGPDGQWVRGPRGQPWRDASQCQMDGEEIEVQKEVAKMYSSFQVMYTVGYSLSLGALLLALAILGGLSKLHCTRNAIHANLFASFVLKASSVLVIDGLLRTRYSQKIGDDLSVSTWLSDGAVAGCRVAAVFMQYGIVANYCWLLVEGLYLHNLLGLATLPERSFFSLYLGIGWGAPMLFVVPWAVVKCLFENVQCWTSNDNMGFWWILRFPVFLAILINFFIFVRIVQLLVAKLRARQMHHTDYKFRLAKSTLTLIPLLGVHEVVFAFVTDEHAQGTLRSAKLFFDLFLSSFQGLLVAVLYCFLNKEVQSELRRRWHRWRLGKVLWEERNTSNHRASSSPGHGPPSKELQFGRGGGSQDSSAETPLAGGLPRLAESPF

Q: With CCC[C@H]1CC[C@@H](N(Cc2ccc(C(=O)NCCC(=O)O)cc2)C(=O)Nc2ccc(OC(F)(F)F)cc2)CC1 [Example 77, 3-{4-[1-(4-cis-Propylcyclohexyl)-3-(4-trifluoromethoxyphenyl)ureidomethyl]benzoylamino}propionic acid] as the compound, how does the IC50 read?
A: Its IC50 is 294 nM.

Q: For CCC(C)(C)[C@H]1CC[C@H](N(Cc2ccc(C(=O)NCCC(=O)O)cc2)C(=O)Nc2ccc(OC(F)(F)F)cc2)CC1 [Example 78, 3-{4-[1-[4-trans-(1,1-Dimethylpropyl)cyclohexyl]-3-(4-trifluoromethoxyphenyl)ureidomethyl]benzoylamino}propionic acid], which IC50 is on record?
A: The IC50 was 49 nM.

Q: For O=C(O)CCNC(=O)c1ccc(CN(C(=O)Nc2ccc(OC(F)(F)F)cc2)C2CCC3CCCCC3C2)cc1 (centres unmarked) [Example 79, 3-{4-[1-(Decahydronaphthalen-2-yl)-3-(4-trifluoromethoxyphenyl)ureidomethyl]benzoylamino}propionic acid], which IC50 is on record?
A: The IC50 was 200 nM.

Q: For O=C(O)CCNC(=O)c1ccc(CN(C(=O)Nc2ccc(OC(F)(F)F)cc2)[C@H]2CC[C@@H](c3ccccc3)CC2)cc1 [Example 80, 3-{4-[1-(4-cis-Phenylcyclohexyl)-3-(4-trifluoromethoxyphenyl)ureidomethyl]benzoylamino}propionic acid], which IC50 is on record?
A: The IC50 was 229 nM.

Q: With O=C(O)CCNC(=O)c1ccc(CN(C(=O)Nc2ccc(OC(F)(F)F)cc2)[C@H]2CC[C@H](c3ccccc3)CC2)cc1 [Example 81, 3-{4-[1-(4-trans-Phenylcyclohexane)-3-(4-trifluoromethoxyphenyl)ureidomethyl]benzoylamino}propionic acid] as the compound, how does the IC50 read?
A: The IC50 was 143 nM.

Q: How did the IC50 turn out when CC(C)C1CCC(N(Cc2ccc(C(=O)NCCC(=O)O)cc2)C(=O)Nc2ccc(OC(F)(F)F)cc2)CC1 (centres unmarked) [Example 82, 3-{4-[1-(4-Isopropylcyclohexyl)-3-(4-trifluoromethoxyphenyl)ureidomethyl]benzoylamino}propionic acid] was run?
A: The IC50 was 59 nM.

Q: CCC1CCC(N(Cc2ccc(C(=O)NCCC(=O)O)cc2)C(=O)Nc2ccc(OC(F)(F)F)cc2)CC1 (centres unmarked) [Example 83, 3-{4-[1-(4-Ethylcyclohexyl)-3-(4-trifluoromethoxyphenyl)ureidomethyl]benzoylamino}propionic acid] was tested. Which IC50 did it give?
A: The IC50 was 203 nM.

Q: How did the IC50 turn out when CCCCOC(=O)c1ccc(NC(=O)N(Cc2ccc(C(=O)NCCC(=O)O)cc2)C2CCC(C(C)C)CC2)cc1 (centres unmarked) [Example 84, 4-[3-[4-(2-Carboxyethylcarbamoyl)benzyl]-3-(4-isopropylcyclohexyl)ureido]benzoic acid butyl ester] was run?
A: The IC50 was 261 nM.

Q: For CCC1CCC(N(Cc2ccc(C(=O)NCCC(=O)O)cc2)C(=O)Nc2cc(C(F)(F)F)cc(C(F)(F)F)c2)C1 (centres unmarked) [Example 85, 3-{4-[3-(3,5-Bis(trifluoromethyl)phenyl)-1-(3-ethylcyclopentyl)ureidomethyl]benzoylamino}propionic acid], which IC50 is on record?
A: Its IC50 is 494 nM.

Q: With O=C(O)CCNC(=O)c1ccc(CN(C(=O)Nc2cc(C(F)(F)F)cc(C(F)(F)F)c2)C2CCc3ccccc3C2)cc1 (centres unmarked) [Example 86, 3-{4-[3-(3,5-Bis(trifluoromethyl)phenyl)-1-(1,2,3,4-tetrahydronaphthalen-2-yl)ureidomethyl]benzoylamino}propionic acid] as the compound, how does the IC50 read?
A: The IC50 was 423 nM.

Q: Which IC50 does the source give for CCC(C)(C)C1CCC(N(Cc2ccc(C(=O)NCCC(=O)O)cc2)C(=O)Nc2ccc(OC(F)(F)F)cc2)CC1 (centres unmarked) [Example 87, 3-{4-[1-[4-(1,1-Dimethylpropyl)cyclohexyl]-3-(4-trifluoromethoxyphenyl)ureidomethyl]benzoylamino}propionic acid] here?
A: The IC50 was 43 nM.

Q: CCCC1(CCC)CCC(N(Cc2ccc(C(=O)NCCC(=O)O)cc2)C(=O)Nc2ccc(OC(F)(F)F)cc2)CC1 [Example 88, 3-{4-[1-(4,4-Dipropylcyclohexyl)-3-(4-trifluoromethoxyphenyl)ureidomethyl]benzoylamino}propionic acid] was tested. Which IC50 did it give?
A: Its IC50 is 137 nM.

Q: With O=C(O)CCNC(=O)c1ccc(CN(C(=O)Nc2ccc(OC(F)(F)F)cc2)C2CCC3(CC2)OCCO3)cc1 [Example 89, 3-{4-[1-(1,4-Dioxaspiro[4.5]dec-8-yl)-3-(4-trifluoromethoxyphenyl)ureidomethyl]benzoylamino}propionic acid] as the compound, how does the IC50 read?
A: The IC50 was 1210 nM.

Q: How did the IC50 turn out when CC(C)(C)C1CCC(N(Cc2ccc(C(=O)N(CCC(=O)O)CC3CC3)cc2)C(=O)Nc2ccc(OC(F)(F)F)cc2)CC1 (centres unmarked) [Example 90, 3-({4-[1-(4-tert-Butylcyclohexyl)-3-(4-trifluoromethoxyphenyl)ureidomethyl]benzoyl}cyclopropylmethyl)aminopropionic acid] was run?
A: The IC50 was 4200 nM.

Q: How did the IC50 turn out when CCN(CCC(=O)O)C(=O)c1ccc(CN(C(=O)Nc2ccc(OC(F)(F)F)cc2)C2CCC(C(C)(C)C)CC2)cc1 (centres unmarked) [Example 91, 3-({4-[1-(4-tert-Butylcyclohexyl)-3-(4-trifluoromethoxyphenyl)ureidomethyl]benzoyl}ethylamino)propionic acid] was run?
A: The IC50 was 2800 nM.

Q: With CCCCC(CC)CN(Cc1ccc(C(=O)NCCC(=O)O)cc1)C(=O)Nc1ccc(OC(F)(F)F)cc1 (centres unmarked) [Example 96, 3-{4-[1-(2-Ethylhexyl)-3-(4-trifluoromethoxyphenyl)ureidomethyl]benzoylamino}propionic acid] as the compound, how does the IC50 read?
A: The IC50 was 137 nM.

Q: O=C(O)CCNC(=O)c1ccc(CN(C(=O)Nc2ccc(OC(F)(F)F)cc2)[C@H]2CC[C@H](OC(=O)Nc3ccc(OC(F)(F)F)cc3)CC2)cc1 [Example 97, 3-{4-[1-(trans-4-(4-Trifluoromethoxyphenylcarbamoyloxy)cyclohexyl)-3-(4-trifluoromethoxyphenyl)ureidomethyl]benzoylamino}propionic acid] was tested. Which IC50 did it give?
A: Its IC50 is 1650 nM.

Q: With COC(=O)CCNC(=O)c1ccc(CN(C(=O)Nc2ccc(OC(F)(F)F)cc2)[C@H]2CC[C@H](C(C)(C)C)CC2)cc1 [Example 98, 3-{4-[1-(trans-4-tert-Butylcyclohexyl)-3-(4-trifluoromethoxyphenyl)ureidomethyl]benzoylamino}propionic acid methyl ester] as the compound, how does the IC50 read?
A: Its IC50 is 83 nM.

Q: Which IC50 does the source give for CC(C)(C)[C@H]1CC[C@H](N(Cc2ccc(C(=O)NCCC(=O)O)cc2)C(=O)Nc2cc(C(F)(F)F)cc(C(F)(F)F)c2)CC1 [Example 100, 3-{4-[3-(3,5-Bis-trifluoromethylphenyl)-1-(trans-4-tert-butylcyclohexyl)ureidomethyl]benzoylamino}propionic acid] here?
A: Its IC50 is 50 nM.

Same assay, conditions: Glu Bd Assay (III) IC50 (nM), BHK cell membranes, WGA SPA beads, 125I-glucagon

Q: CC(C)(C)[C@H]1CC[C@@H](N(Cc2ccc(C(=O)NCCC(=O)O)cc2)C(=O)Nc2ccc(OC(F)(F)F)cc2)CC1 [Example 93, 3-{4-[1-(cis-4-tert-Butylcyclohexyl)-3-(4-trifluoromethoxy-phenyl)ureidomethyl]benzoylamino}propionic acid] was tested. Which IC50 did it give?
A: The IC50 was 47 nM.

Q: CC(C)(C)[C@H]1CC[C@H](N(Cc2ccc(C(=O)NCC(=O)O)cc2)C(=O)Nc2ccc(OC(F)(F)F)cc2)CC1 [Example 95, 3-{4-[1-(trans-4-tert-Butylcyclohexyl)-3-(4-trifluoromethoxyphenyl)ureidomethyl]benzoylamino}acetic acid] was tested. Which IC50 did it give?
A: Its IC50 is 1700 nM.

Q: For CC(C)(C)C1CCC(N(Cc2ccc(C(=O)NCCC(=O)O)cc2)C(=O)Nc2ccc(C#N)cc2)CC1 (centres unmarked) [Example 99, 3-{4-[1-(4-tert-Butylcyclohexyl)-3-(4-cyanophenyl)ureidomethyl]benzoylamino}propionic acid], which IC50 is on record?
A: The IC50 was 1050 nM.

Q: CC(C)(C)[C@H]1CC[C@H](N(Cc2ccc(C(=O)NCCC(=O)O)cc2)C(=O)Nc2cc(C(F)(F)F)cc(C(F)(F)F)c2)CC1 [Example 237, 3-{4-[3-(3,5-Bis-trifluoromethylphenyl)-1-(trans-4-tert-butylcyclohexyl)ureidomethyl]benzoylamino}propionic acid] was tested. Which IC50 did it give?
A: Its IC50 is 56 nM.
